Results from the Kinase Knowledgebase extract (Sharma et al. 2016).
Several values for one entry are separate records, joined by “and”; a condition that tells them apart may be missing. Equal values may be shown once.

What was measured:
Test in all cases: Enzyme Assay
CDK2 [1] = target: CDK2 (UniProt P24941)
CDK2 [2] = target: CDK2 (UniProt P24941); remark: listed apart in the source
CDK2 [3] = target: CDK2 (UniProt P24941); remark: listed apart in the source

SMILES | IC50 (CDK2 [1]) | IC50 (CDK2 [2]) | IC50 (CDK2 [3])
CCCn1c(=O)ccc2cnc(N(C)c3ccc(O)c(N4CCOCC4)c3)nc21 | 1100 nM | 680 nM | –
CCCCn1c(=O)ccc2cnc(Nc3cc(Cl)cc(Cl)c3)nc21 | 3780 nM | – | –
COc1ccc(Nc2ncc3ccc(=O)n(C(C)C)c3n2)cc1 | 540 nM | – | 392 nM
CCCn1c(=O)ccc2cnc(Nc3cc(OC)c(OC)c(OC)c3)nc21 | 1650 nM | – | –
CCCn1c(=O)ccc2cnc(Nc3ccc(NC(=O)OC(C)(C)C)cc3)nc21 | 2450 nM | 820 nM | –
CCC(CC)n1c(=O)ccc2cnc(Nc3cccc(C(F)(F)F)c3)nc21 | 600 nM | 131 nM | –
O=c1ccc2cnc(Nc3c(F)cc(F)cc3F)nc2n1C1CCCC1 | 330 nM | 470 nM | –
O=c1ccc2cnc(Nc3cccc(OC(F)(F)C(F)F)c3)nc2n1C1CC2CCC1C2 (configuration not stated) | 10000 nM | – | 275 nM
O=c1ccc2cnc(Nc3ccc(-n4cccn4)cc3)nc2n1C1CCCC1 | 87 nM | – | 35.7 nM
CCCn1c(=O)ccc2cnc(Nc3ccc(I)c(Cl)c3)nc21 | 820 nM | 180 nM | –
Cc1cc(Nc2ncc3ccc(=O)n(C(C)C)c3n2)ccc1Cl | 350 nM | 220 nM | –
CC(C)n1c(=O)ccc2cnc(Nc3ccc(F)c(Cl)c3)nc21 | 140 nM | – | –
O=c1ccc2cnc(Nc3ccc(N4CCC(CCO)CC4)cc3)nc2n1C1CCCCC1 | 30 nM | – | 14.2 nM
COc1ccc(Nc2ncc3ccc(=O)n(C4CCCC4)c3n2)cc1F | 75 nM | 35 nM | –
O=c1ccc2cnc(Nc3ccc(N4CCCCC4)cc3)nc2n1C1CCCCC1 | 193 nM | – | 66.8 nM
O=c1ccc2cnc(Nc3ccc(N4CCCC(O)C4)cc3)nc2n1C1CCCC1 (configuration not stated) | 44 nM | – | –
O=c1ccc2cnc(Nc3ccc(N4CCCCC4)cc3)nc2n1CCCOC1CCCCO1 (configuration not stated) | 1900 nM | – | 284 nM
CCCn1c(=O)ccc2cnc(Nc3ccc(OC)c(O)c3)nc21 | 960 nM and 1100 nM | 240 nM and 670 nM | –
O=c1ccc2cnc(Nc3ccc(Br)c(C(F)(F)F)c3)nc2n1C1CCCC1 | 220 nM | 150 nM | –
O=c1ccc2cnc(Nc3ccc4cn[nH]c4c3)nc2n1CC1CC1 | 260 nM | 200 nM | –
CCC(CC)n1c(=O)ccc2cnc(Nc3ccc(F)c(C)c3)nc21 | 155 nM | – | –
